Data reported in patent US20240025884A1 (Dong-A ST Co., Ltd., priority 2022, published 2024).

What follows are compounds tested against GCN2 (Homo sapiens (Human), UniProt Q9P2K8) (assay: GCN2 Biochemical Assay (TR-FRET, GFP-eIF2S1 substrate phosphorylation)). Conditions: read-out: IC50 (GCN2 Inhibitory Activity).
How it was run: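 TR-FRET readout (Ex 340, Em 490/520 nm) after 2–3 h with Tb-labelled phospho-eIF2S1 antibody in stop mix, following a 70 min room-temperature kinase step. Reaction: in-house GCN2, GFP-eIF2S1, ATP, tRNA in Tris pH 7.5 (2× stocks 1.6 nM, 50 nM, 0.2 mM); compounds tested at 10 concentrations, with a phospho-substrate artifact counter-plate.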

GCN2, sequence (Q9P2K8 whole entry): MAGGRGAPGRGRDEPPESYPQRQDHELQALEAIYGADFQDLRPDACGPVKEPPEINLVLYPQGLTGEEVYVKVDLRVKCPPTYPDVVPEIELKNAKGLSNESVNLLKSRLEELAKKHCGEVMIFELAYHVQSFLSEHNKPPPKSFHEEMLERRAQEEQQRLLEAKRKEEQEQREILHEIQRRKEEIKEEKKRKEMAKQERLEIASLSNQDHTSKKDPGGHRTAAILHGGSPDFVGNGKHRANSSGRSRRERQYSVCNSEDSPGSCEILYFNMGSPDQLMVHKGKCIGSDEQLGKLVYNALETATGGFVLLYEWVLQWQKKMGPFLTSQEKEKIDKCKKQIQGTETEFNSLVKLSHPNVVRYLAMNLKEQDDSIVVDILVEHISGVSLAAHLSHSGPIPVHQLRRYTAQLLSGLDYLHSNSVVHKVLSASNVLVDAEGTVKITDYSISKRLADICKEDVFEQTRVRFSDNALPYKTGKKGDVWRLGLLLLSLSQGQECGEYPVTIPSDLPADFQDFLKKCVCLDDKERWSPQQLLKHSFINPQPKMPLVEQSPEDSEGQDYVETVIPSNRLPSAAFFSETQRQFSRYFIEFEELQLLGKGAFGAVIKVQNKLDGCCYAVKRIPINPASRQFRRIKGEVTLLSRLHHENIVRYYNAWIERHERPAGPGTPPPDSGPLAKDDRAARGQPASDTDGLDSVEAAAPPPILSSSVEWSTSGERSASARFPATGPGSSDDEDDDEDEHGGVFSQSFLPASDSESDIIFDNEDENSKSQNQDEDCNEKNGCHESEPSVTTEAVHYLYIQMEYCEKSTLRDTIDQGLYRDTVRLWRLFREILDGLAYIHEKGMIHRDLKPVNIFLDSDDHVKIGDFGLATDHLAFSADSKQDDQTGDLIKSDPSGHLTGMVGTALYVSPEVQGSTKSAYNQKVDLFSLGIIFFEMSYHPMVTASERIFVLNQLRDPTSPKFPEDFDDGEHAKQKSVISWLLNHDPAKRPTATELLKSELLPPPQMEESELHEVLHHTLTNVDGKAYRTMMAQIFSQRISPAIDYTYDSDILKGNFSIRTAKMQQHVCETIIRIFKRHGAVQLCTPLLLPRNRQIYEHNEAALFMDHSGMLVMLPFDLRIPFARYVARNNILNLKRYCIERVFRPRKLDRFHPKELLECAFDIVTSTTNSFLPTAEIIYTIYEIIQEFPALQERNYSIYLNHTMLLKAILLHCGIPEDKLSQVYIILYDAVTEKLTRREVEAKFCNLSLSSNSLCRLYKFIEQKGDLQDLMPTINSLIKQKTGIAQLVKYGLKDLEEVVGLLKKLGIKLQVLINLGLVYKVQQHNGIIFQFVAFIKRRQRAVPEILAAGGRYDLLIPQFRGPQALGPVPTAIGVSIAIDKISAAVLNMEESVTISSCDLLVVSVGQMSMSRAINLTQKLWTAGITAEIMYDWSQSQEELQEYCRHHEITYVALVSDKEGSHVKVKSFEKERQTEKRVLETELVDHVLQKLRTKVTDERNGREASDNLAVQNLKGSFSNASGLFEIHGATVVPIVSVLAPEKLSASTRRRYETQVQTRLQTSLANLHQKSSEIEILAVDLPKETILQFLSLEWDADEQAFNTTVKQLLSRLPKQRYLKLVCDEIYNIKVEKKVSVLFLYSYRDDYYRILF

`Cc1cnc(Nc2cc(C)n(C)n2)nc1-c1c[nH]c2c(NC(=O)CN3CC[C@H](Oc4ccnc(NC(C)C)n4)C3)cccc12` [Example 211, (S)-N-(3-(2-((1,5-dimethyl-1H-pyrazol-3-yl)amino)-5-methylpyrimidin-4-yl)-1H-indol-7-yl)-2-(3-((2-(isopropylamino)pyrimidin-4-yl)oxy)pyrrolidin-1-yl)acetamide] and `CCC(C)Nc1nccc(O[C@H]2CCN(CC(=O)Nc3cccc4c(-c5nc(Nc6cc(C)n(C)n6)ncc5C)c[nH]c34)C2)n1` (stereo partly drawn) [Example 212, 2-((3S)-3-((2-(sec-butylamino)pyrimidin-4-yl)oxy)pyrrolidin-1-yl)-N-(3-(2-((1,5-dimethyl-1H-pyrazol-3-yl)amino)-5-methylpyrimidin-4-yl)-1H-indol-7-yl)acetamide] cannot be ordered by IC50: less than 0.01 µM for the first, less than 0.01 µM for the second.

`Cc1cnc(Nc2cc(C)n(C)n2)nc1-c1c[nH]c2c(NC(=O)CN3CC[C@H](Oc4ccnc(NCC5CC5)n4)C3)cccc12` [Example 213, (S)-2-(3-((2-((cyclopropylmethyl)amino)pyrimidin-4-yl)oxy)pyrrolidin-1-yl)-N-(3-(2-((1,5-dimethyl-1H-pyrazol-3-yl)amino)-5-methylpyrimidin-4-yl)-1H-indol-7-yl)acetamide] and `Cc1cnc(Nc2cc(C)n(C)n2)nc1-c1c[nH]c2c(NC(=O)CN3CC[C@H](Oc4ccnc(NCCO)n4)C3)cccc12` [Example 215, (S)-N-(3-(2-((1,5-dimethyl-1H-pyrazol-3-yl)amino)-5-methylpyrimidin-4-yl)-1H-indol-7-yl)-2-(3-((2-((2-hydroxyethyl)amino)pyrimidin-4-yl)oxy)pyrrolidin-1-yl)acetamide] cannot be ordered by IC50: less than 0.01 µM for the first, less than 0.01 µM for the second.

First: Cc1cnc(Nc2cc(C)n(C)n2)nc1-c1c[nH]c2c(NC(=O)CN3CC[C@H](Oc4ccnc(NCc5ccccc5)n4)C3)cccc12 [Example 214, (S)-2-(3-((2-(benzylamino)pyrimidin-4-yl)oxy)pyrrolidin-1-yl)-N-(3-(2-((1,5-dimethyl-1H-pyrazol-3-yl)amino)-5-methylpyrimidin-4-yl)-1H-indol-7-yl)acetamide]
Second: Cc1cnc(Nc2cc(C)n(C)n2)nc1-c1c[nH]c2c(NC(=O)CN3CC[C@H](Oc4ccnc(N(C)Cc5ccccc5)n4)C3)cccc12 [Example 221, (S)-2-(3-((2-(benzyl(methyl)amino)pyrimidin-4-yl)oxy)pyrrolidin-1-yl)-N-(3-(2-((1,5-dimethyl-1H-pyrazol-3-yl)amino)-5-methylpyrimidin-4-yl)-1H-indol-7-yl)acetamide]
The IC50 of the first is lower: less than 0.01 µM for the first, 0.1 to 1 µM for the second. The first is the more potent here.

`COCCNc1nccc(O[C@H]2CCN(CC(=O)Nc3cccc4c(-c5nc(Nc6cc(C)n(C)n6)ncc5C)c[nH]c34)C2)n1` [Example 216, (S)-N-(3-(2-((1,5-dimethyl-1H-pyrazol-3-yl)amino)-5-methylpyrimidin-4-yl)-1H-indol-7-yl)-2-(3-((2-((2-methoxyethyl)amino)pyrimidin-4-yl)oxy)pyrrolidin-1-yl)acetamide] and `Cc1cnc(Nc2cc(C)n(C)n2)nc1-c1c[nH]c2c(NC(=O)CN3CC[C@H](Oc4ccnc(NCCN(C)C)n4)C3)cccc12` [Example 217, (S)-N-(3-(2-((1,5-dimethyl-1H-pyrazol-3-yl)amino)-5-methylpyrimidin-4-yl)-1H-indol-7-yl)-2-(3-((2-((2-(dimethylamino)ethyl)amino)pyrimidin-4-yl)oxy)pyrrolidin-1-yl)acetamide] cannot be ordered by IC50: less than 0.01 µM for the first, less than 0.01 µM for the second.

First: Cc1cnc(Nc2cc(C)n(C)n2)nc1-c1c[nH]c2c(NC(=O)CN3CC[C@H](Oc4ccnc(NCCCN(C)C)n4)C3)cccc12 [Example 218, (S)-N-(3-(2-((1,5-dimethyl-1H-pyrazol-3-yl)amino)-5-methylpyrimidin-4-yl)-1H-indol-7-yl)-2-(3-((2-((3-(dimethylamino)propyl)amino)pyrimidin-4-yl)oxy)pyrrolidin-1-yl)acetamide]
Second: Cc1cnc(Nc2cc(C)n(C)n2)nc1-c1c[nH]c2c(NC(=O)CN3CC[C@H](Oc4ccnc(N(C)C)n4)C3)cccc12 [Example 220, (S)-N-(3-(2-((1,5-dimethyl-1H-pyrazol-3-yl)amino)-5-methylpyrimidin-4-yl)-1H-indol-7-yl)-2-(3-((2-(dimethylamino)pyrimidin-4-yl)oxy)pyrrolidin-1-yl)acetamide]
The IC50 of the first is lower: less than 0.01 µM for the first, 0.01 to 0.1 µM for the second. The first is the more potent here.

First: CONc1nccc(O[C@H]2CCN(CC(=O)Nc3cccc4c(-c5nc(Nc6cc(C)n(C)n6)ncc5C)c[nH]c34)C2)n1 [Example 219, (S)-N-(3-(2-((1,5-dimethyl-1H-pyrazol-3-yl)amino)-5-methylpyrimidin-4-yl)-1H-indol-7-yl)-2-(3-((2-(methoxyamino)pyrimidin-4-yl)oxy)pyrrolidin-1-yl)acetamide]
Second: Cc1cnc(Nc2cc(C)n(C)n2)nc1-c1c[nH]c2c(NC(=O)CN3CC[C@H](Oc4ccnc(N5CCCC5)n4)C3)cccc12 [Example 222, (S)-N-(3-(2-((1,5-dimethyl-1H-pyrazol-3-yl)amino)-5-methylpyrimidin-4-yl)-1H-indol-7-yl)-2-(3-((2-(pyrrolidin-t-yl)pyrimidin-4-yl)oxy)pyrrolidin-1-yl)acetamide]
The IC50 of the first is lower: less than 0.01 µM for the first, 0.01 to 0.1 µM for the second. The first is the more potent here.

First: Cc1cnc(Nc2cc(C)n(C)n2)nc1-c1c[nH]c2c(NC(=O)CN3CC[C@H](Oc4ccnc(N5CCCCC5)n4)C3)cccc12 [Example 223, (S)-N-(3-(2-((1,5-dimethyl-1H-pyrazol-3-yl)amino)-5-methylpyrimidin-4-yl)-1H-indol-7-yl)-2-(3-((2-(piperidin-1-yl)pyrimidin-4-yl)oxy)pyrrolidin-1-yl)acetamide]
Second: Cc1cnc(Nc2cc(C)n(C)n2)nc1-c1c[nH]c2c(NC(=O)CN3CC[C@H](Oc4ccnc(N5CCOCC5)n4)C3)cccc12 [Example 224, (S)-N-(3-(2-((1,5-dimethyl-1H-pyrazol-3-yl)amino)-5-methylpyrimidin-4-yl)-1H-indol-7-yl)-2-(3-((2-morpholinopyrimidin-4-yl)oxy)pyrrolidin-1-yl)acetamide]
The IC50 of the first is higher: 0.01 to 0.1 µM for the first, less than 0.01 µM for the second.

`Cc1cnc(Nc2cc(C)n(C)n2)nc1-c1c[nH]c2c(NC(=O)CN3CC[C@H](Oc4ccnc(N5CCN(C)CC5)n4)C3)cccc12` [Example 225, (S)-N-(3-(2-((1,5-dimethyl-1H-pyrazol-3-yl)amino)-5-methylpyrimidin-4-yl)-1H-indol-7-yl)-2-(3-((2-(4-methylpiperazin-1-yl)pyrimidin-4-yl)oxy)pyrrolidin-1-yl)acetamide] and `Cc1cnc(Nc2cc(C)n(C)n2)nc1-c1c[nH]c2c(NC(=O)CN3CC[C@H](Oc4nc(N5CCN(C)CC5)ncc4F)C3)cccc12` [Example 233, (S)-N-(3-(2-((1,5-dimethyl-1H-pyrazol-3-yl)amino)-5-methylpyrimidin-4-yl)-1H-indol-7-yl)-2-(3-((5-fluoro-2-(4-methylpiperazin-1-yl)pyrimidin-4-yl)oxy)pyrrolidin-1-yl)acetamide] cannot be ordered by IC50: less than 0.01 µM for the first, less than 0.01 µM for the second.

Compared with `Cc1cnc(Nc2cc(C)n(C)n2)nc1-c1c[nH]c2c(NC(=O)CN3CC[C@H](Oc4nc(N)ncc4F)C3)cccc12` [Example 226, (S)-2-(3-((2-amino-5-fluoropyrimidin-4-yl)oxy)pyrrolidin-1-yl)-N-(3-(2-((1,5-dimethyl-1H-pyrazol-3-yl)amino)-5-methylpyrimidin-4-yl)-1H-indol-7-yl)acetamide], `Cc1cnc(Nc2cc(C)n(C)n2)nc1-c1c[nH]c2c(NC(=O)CN3CC[C@H](Oc4nc(N(C)C)ncc4F)C3)cccc12` [Example 231, (S)-N-(3-(2-((1,5-dimethyl-1H-pyrazol-3-yl)amino)-5-methylpyrimidin-4-yl)-1H-indol-7-yl)-2-(3-((2-(dimethylamino)-5-fluoropyrimidin-4-yl)oxy)pyrrolidin-1-yl)acetamide] is higher in IC50: less than 0.01 µM for the first, 0.01 to 0.1 µM for the second. The first is the more potent here.

First: Cc1cnc(Nc2cc(C)n(C)n2)nc1-c1c[nH]c2c(NC(=O)CN3CC[C@H](Oc4nc(NC5CC5)ncc4F)C3)cccc12 [Example 227, (S)-2-(3-((2-(cyclopropylamino)-5-fluoropyrimidin-4-yl)oxy)pyrrolidin-1-yl)-N-(3-(2-((1,5-dimethyl-1H-pyrazol-3-yl)amino)-5-methylpyrimidin-4-yl)-1H-indol-7-yl)acetamide]
Second: Cc1cnc(Nc2cc(C)n(C)n2)nc1-c1c[nH]c2c(NC(=O)CN3CC[C@H](Oc4nc(NC5CCCCC5)ncc4F)C3)cccc12 [Example 228, (S)-2-(3-((2-(cyclohexylamino)-5-fluoropyrimidin-4-yl)oxy)pyrrolidin-1-yl)-N-(3-(2-((1,5-dimethyl-1H-pyrazol-3-yl)amino)-5-methylpyrimidin-4-yl)-1H-indol-7-yl)acetamide]
The IC50 of the first is lower: less than 0.01 µM for the first, 0.01 to 0.1 µM for the second.

`Cc1cnc(Nc2cc(C)n(C)n2)nc1-c1c[nH]c2c(NC(=O)CN3CC[C@H](Oc4nc(NCC5CC5)ncc4F)C3)cccc12` [Example 229, (S)-2-(3-((2-((cyclopropylmethyl)amino)-5-fluoropyrimidin-4-yl)oxy)pyrrolidin-1-yl)-N-(3-(2-((1,5-dimethyl-1H-pyrazol-3-yl)amino)-5-methylpyrimidin-4-yl)-1H-indol-7-yl)acetamide] and `Cc1cnc(Nc2cc(C)n(C)n2)nc1-c1c[nH]c2c(NC(=O)CN3CC[C@H](Oc4nc(NCc5ccccc5)ncc4F)C3)cccc12` [Example 230, (S)-2-(3-((2-(benzylamino)-5-fluoropyrimidin-4-yl)oxy)pyrrolidin-1-yl)-N-(3-(2-((1,5-dimethyl-1H-pyrazol-3-yl)amino)-5-methylpyrimidin-4-yl)-1H-indol-7-yl)acetamide] fall in the same range of IC50: 0.01 to 0.1 µM for the first, 0.01 to 0.1 µM for the second.

For `Cc1cnc(Nc2cc(C)n(C)n2)nc1-c1c[nH]c2c(NC(=O)CN3CC[C@H](Oc4nc(N5CCOCC5)ncc4F)C3)cccc12` [Example 232, (S)-N-(3-(2-((1,5-dimethyl-1H-pyrazol-3-yl)amino)-5-methylpyrimidin-4-yl)-1H-indol-7-yl)-2-(3-((5-fluoro-2-morpholinopyrimidin-4-yl)oxy)pyrrolidin-1-yl)acetamide], the IC50 was less than 0.01 µM.
